In experiment [1] the test system is neuroblastoma SH-SY5Y tumor cell line. Kind of experiment: MTT antiproliferative assay. The class given is cell-based, Human. Particulars: SH-SY5Y cells; for inhibition at 25 µM / IC50: Homo sapiens; for inhibition at 25 µM: after 72 h, read-out: inhibition of cell proliferation; for inhibition at 25 µM / antiproliferative effect (in words): MTT; for IC50: MTT test; for antiproliferative effect (in words): 1–50 µM, 24, 48 and 72 h. The method, then:
Human neuroblastoma cell line SH-SY5Y was originally obtained from ATCC (Rockville, MD, USA). Cells were cultured as previously reported. Briefly, we employed RPMI 1640 medium with 10% heat-inactivated fetal bovine serum (FBS), 2 mM L-glutamine, 1 mM sodium pyruvate, 100 IU/mL penicillin and 100 μg/mL streptomycin at 37 °C in a humidified atmosphere with 5% CO2. All the reagents for cell culture were from Carlo Erba (Milan, Italy). For biological investigations, compounds 1a, 2 and 3 were solubilized in dimethyl sulfoxide (DMSO) to obtain stock solutions at a final concentration of 50 mM that were stored at −20 °C. Just prior use, aliquots were diluted in medium to the final concentrations ranging from 1 to 50 μM.
The abovementioned compounds were evaluated by the MTT assay to assess their anti-proliferative activity, as reported by Ferlazzo et al. Cells were seeded at a density of 5 × 10^3 cell/well in 96-well plates and incubated overnight at 37 °C. In treated cells, the medium was then replaced with a fresh one in which the compounds were diluted from 1 to 50 µM. Untreated cells together with ones exposed to DMSO 0.1% served as control and solvent control, respectively. After incubation for 24, 48, and 72 h, plates were firstly centrifuged, then the medium was removed, and a solution of 3-(4,5-dimethylthiazole-2-yl)-2,5-diphenyltetrazolium bromide (MTT; Sigma-Aldrich, Milan, Italy) at a concentration of 0.5 mg/mL in fresh medium (w/o phenol red) was added. Plates were incubated for further 4h. Afterward, MTT solution was removed, and the obtained formazan crystals were solubilized in 100 µL of a lysis buffer consisting of HCl/isopropanol 0.1 N and regularly shaken. Optical density was measured employing a microplate reader (iMark™, Bio-Rad Laboratories, Milan, Italy) at 595 nm. All experiments were carried out in eight replicates for three times. Results are expressed as the percentage of viable cells compared to untreated cells.

The test system of experiment [2] is HDAC (HeLa nuclear extract). Kind of experiment: HDAC Inhibitor Drug Screening Kit (fluorometric, Biovision K340-100). It counts as biochemical. Particulars: for Inhibition at 500 μM (%) / Inhibition at 10 μM (%): mean of 3 independent measurements, SD <10%; for IC50: HDAC inhibitory activity. Here is the method: The N^1-phenylpyrazole derivatives 1a (the isomer with the connection unit at C5) and 1b (the isomer with the connection unit at C3) were evaluated for their ability to inhibit the HDAC activity to have a preliminary insight about the SAR of this set of compounds. […] Therefore, the development of the other two derivatives of this class, i.e., the p-CN-phenyl derivative 2 and the p-Br-phenyl derivative 3, was focused on the single isomer C5-substituted. As for 1a, the detected inhibitory activity of 2 and 3 was in the low micromolar range (6.3 µM and 1.6 µM, respectively; Table 1).

“Also recorded” adds a separate entry of the source.

Consider eight molecules from PMC6412695, “Hydroxamic Acid-Based Histone Deacetylase (HDAC) Inhibitors Bearing a Pyrazole Scaffold and a Cinnamoyl Linker” (International Journal of Molecular Sciences, 2019).

Consider `Cc1cc(C(=O)Nc2ccc(/C=C/C(=O)NO)cc2)n(-c2ccccc2)n1` [Compound 1a, (E)-N-(4-(3-(hydroxyamino)-3-oxoprop-1-enyl)phenyl)-3-methyl-1-phenyl-1H-pyrazole-5-carboxamide], for which, in experiment [1], the inhibition at 25 µM is greater than 75% and the IC50 worked out at 5.34 µM. Moreover, in experiment [2], the “Inhibition at 500 μM (%)” value amounted to 86% and half-maximal inhibition (IC50) required 7.1 ± 0.5 µM.
Turning to `Cc1cc(C(=O)Nc2ccc(/C=C/C(=O)NO)cc2)nn1-c1ccccc1` [Compound 1b, (E)-N-(4-(3-(hydroxyamino)-3-oxoprop-1-enyl)phenyl)-5-methyl-1-phenyl-1H-pyrazole-3-carboxamide], in experiment [2], the “Inhibition at 10 μM (%)” value came to 6%, the “Inhibition at 500 μM (%)” value came out at 30% and the IC50 is greater than 500 µM.
Take `Cc1cc(C(=O)Nc2ccc(/C=C/C(=O)NO)cc2)n(-c2ccc(C#N)cc2)n1` [Compound 2, (E)-1-(4-cyanophenyl)-N-(4-(3-(hydroxyamino)-3-oxoprop-1-enyl)phenyl)-3-methyl-1H-pyrazole-5-carboxamide]: the “antiproliferative effect (in words)” value in experiment [1] was “inactive”. Besides, the “antiproliferative effect (in words)” value in experiment [1] (listed as 2a) is “None of the tested concentrations; also recorded: No antiproliferative effect”. Besides, in experiment [2], the “Inhibition at 10 μM (%)” value is given as 51%, the “Inhibition at 500 μM (%)” value is 88% and half-maximal inhibition (IC50) was put at 6.3 ± 0.3 µM.
As to `Cc1cc(C(=O)Nc2ccc(/C=C/C(=O)NO)cc2)n(-c2ccc(Br)cc2)n1` [Compound 3, (E)-1-(4-bromophenyl)-N-(4-(3-(hydroxyamino)-3-oxoprop-1-enyl)phenyl)-3-methyl-1H-pyrazole-5-carboxamide], in experiment [1], the inhibition at 25 µM was greater than 75% and the midpoint of inhibition, the IC50, lay at 5.61 µM. Further, in experiment [2], the “Inhibition at 10 μM (%)” value came to 74%, the “Inhibition at 500 μM (%)” value is on record as 88% and the IC50 was 1.6 ± 0.2 µM.
Consider `O=C(/C=C/c1ccc(NC(=O)c2cc(-c3ccccc3)[nH]n2)cc1)NO` [Compound 4, (E)-N-(4-(3-(hydroxyamino)-3-oxoprop-1-enyl)phenyl)-5-phenyl-1H-pyrazole-3-carboxamide], for which, in experiment [2], the “Inhibition at 10 μM (%)” value turned out to be 13%, the “Inhibition at 500 μM (%)” value is 71% and the IC50 worked out at 155 ± 2.8 µM.
As for `O=C(/C=C/c1ccc(NC(=O)c2cc(-c3ccc(Br)cc3)[nH]n2)cc1)NO` [Compound 5, (E)-5-(4-bromophenyl)-N-(4-(3-(hydroxyamino)-3-oxoprop-1-enyl)phenyl)-1H-pyrazole-3-carboxamide], in experiment [2], the “Inhibition at 500 μM (%)” value came to 15% and the IC50 was greater than 500 µM.
Regarding `O=C(/C=C/c1ccc(NC(=O)c2n[nH]c3c2Cc2ccccc2-3)cc1)NO` [Compound 6, (E)-N-(4-(3-(hydroxyamino)-3-oxoprop-1-enyl)phenyl)-1,4-dihydroindeno[1,2-c]pyrazole-3-carboxamide], in experiment [2], the “Inhibition at 10 μM (%)” value turned out to be 29%, the “Inhibition at 500 μM (%)” value is 87% and the IC50 was 46.5 ± 1.5 µM.
In turn, `CC(/C=C/C(=O)NO)=C\[C@@H](C)C(=O)c1ccc(N(C)C)cc1` [TSA, Trichostatin A, reference compound] registered a half-inhibitory concentration (IC50) in experiment [2] of 3.4 ± 0.2 µM.

The IC50 is the concentration needed to halve the response being measured. The term Inhibition denotes the percentage by which the read-out fell short of the control. Low values mean a weak effect, high ones a strong effect.
